# From patent US11426397B2, “Piperidinyl- and piperazinyl-substituted heteroaromatic carboxamides as modulators of GPR6” (TAKEDA PHARMACEUTICAL COMPANY LIMITED, priority 2017, dated 2022)
# Biological target: T1, GPR6 receptor expressed in CHO-K1 cells (Homo sapiens, UniProt P46095)
# T1 construct: expressed in transfected cells
# Test: In vitro inhibition of cAMP (EC50), cell-based HTRF cAMP assay
# Settings: inhibition of constitutive cAMP activity of GPR6 in CHO-K1 cells
# How it was run: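 Cellular cAMP measured by Lance Ultra HTRF (Eu-cAMP tracer, ULight anti-cAMP), with EC50 fitted by four-parameter logistic. Test compounds sat on cells 45 min, 37 °C, in pH 7.4 Ringer's with 300 μM IBMX and 0.5% BSA; GPR6 in CHO-K1 induced beforehand by doxycycline, 2 μg/mL, 20 h.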
# T1 sequence (P46095 whole entry): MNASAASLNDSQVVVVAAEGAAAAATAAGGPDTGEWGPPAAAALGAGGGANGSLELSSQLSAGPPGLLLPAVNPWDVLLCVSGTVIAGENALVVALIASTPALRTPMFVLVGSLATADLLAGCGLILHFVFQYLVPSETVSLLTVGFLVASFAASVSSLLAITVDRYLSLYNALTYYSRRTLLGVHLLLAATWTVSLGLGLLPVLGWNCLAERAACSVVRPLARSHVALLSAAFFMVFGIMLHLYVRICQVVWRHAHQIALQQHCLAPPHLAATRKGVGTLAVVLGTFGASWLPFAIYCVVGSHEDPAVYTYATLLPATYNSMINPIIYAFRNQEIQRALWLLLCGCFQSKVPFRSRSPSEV
row,Structure (SMILES),"pEC50, in vitro inhibition of cAMP"
1,COc1ncc(F)cc1C(=O)Nc1cnc(C(=O)N(C)C)cc1N1CCC(Oc2ccc(F)cc2F)CC1 [Example 32],7.0
2,"COc1ccc(CN2CCN(c3ncc(C#N)cc3NC(=O)c3cn(C)nc3OC)CC2)c(F)c1 [Example 152, N-(5-cyano-2-(4-(2-fluoro-4-methoxybenzyl)piperazin-1-yl)pyridin-3-yl)-3-methoxy-1-methyl-1H-pyrazole-4-carboxamide]",7.1
3,"COc1nn(C)cc1C(=O)Nc1cc(C#N)cnc1N1CCN(Cc2cc(F)cc(F)c2)CC1 [Example 169, N-(5-cyano-2-(4-(3,5-difluorobenzyl)piperazin-1-yl)pyridin-3-yl)-3-methoxy-1-methyl-1H-pyrazole-4-carboxamide]",6.4
4,"COc1ncccc1C(=O)Nc1cc(CNC(C)=O)cnc1N1CCC(Oc2ccc(F)cc2F)CC1 [Example 64, N-(5-(acetamidomethyl)-2-(4-(2,4-difluorophenoxy)piperidin-1-yl)pyridin-3-yl)-2-methoxynicotinamide]",7.0
5,COc1ncccc1C(=O)Nc1cc(C(=O)N(C)C)c(C#N)cc1N1CCC(Oc2ccc(F)cc2F)CC1 [Example 272],7.4
6,"COc1ncccc1C(=O)Nc1cc(C#N)ccc1N1CCN(Cc2ccc(F)cc2)CC1 [Example 91, N-(5-cyano-2-(4-(4-fluorobenzyl)piperazin-1-yl)phenyl)-2-methoxynicotinamide]",7.1
7,"COc1ncc(NC(=O)c2ccc(C)nc2OC)c(N2CCC(Oc3ccc(F)cc3F)CC2)n1 [Example 23, N-(4-(4-(2,4-difluorophenoxy)piperidin-1-yl)-2-methoxypyrimidin-5-yl)-2-methoxy-6-methylnicotinamide]",6.3
8,"COc1ncccc1C(=O)Nc1cc(C#N)ccc1N1CCN(S(=O)(=O)c2ccc(F)cc2)CC1 [Example 287, N-(5-cyano-2-(4-((4-fluorophenyl)sulfonyl)piperazin-1-yl)phenyl)-2-methoxynicotinamide]",6.2
9,"COc1nn(C)cc1C(=O)Nc1cc(C#N)cnc1N1CCN(Cc2cc(C#N)ccc2F)CC1 [Example 151, N-(5-cyano-2-(4-(5-cyano-2-fluorobenzyl)piperazin-1-yl)pyridin-3-yl)-3-methoxy-1-methyl-1H-pyrazole-4-carboxamide]",6.3
10,"Cn1cccc(C(=O)Nc2cc(C#N)ccc2N2CCC(Oc3ccc(F)cc3)CC2)c1=O [Example 4, N-(5-cyano-2-(4-(4-fluorophenoxy)piperidin-1-yl)phenyl)-1-methyl-2-oxo-1,2-dihydropyridine-3-carboxamide]",6.7
11,COCCCn1cccc(C(=O)Nc2cc(C#N)ccc2N2CCC(Oc3ccc(F)cc3F)CC2)c1=O [Example 199],5.9
12,"COc1ncccc1C(=O)Nc1cc(C#N)ccc1N1CCN(C(=O)c2ccc(Cl)cc2)CC1 [Example 285, N-(2-(4-(4-chlorobenzoyl)piperazin-1-yl)-5-cyanophenyl)-2-methoxynicotinamide]",6.9
13,N#Cc1cnc(N2CCC(Oc3ccc(F)cc3F)CC2)c(NC(=O)c2cnccc2O)c1 [Example 61],6.4
14,COc1cccc(F)c1C(=O)Nc1cc(S(C)(=O)=O)ccc1N1CCC(Oc2ccc(F)cc2F)CC1 [Example 11],6.7
15,"COc1ncc(F)cc1C(=O)Nc1ccc(C)nc1N1CCN(Cc2ccc(F)cc2)CC1 [Example 100, 5-fluoro-N-(2-(4-(4-fluorobenzyl)piperazin-1-yl)-6-methylpyridin-3-yl)-2-methoxynicotinamide]",6.8
16,"COc1nn(C)cc1C(=O)Nc1cc(C#N)cnc1N1CCN(Cc2ccccc2OC(F)F)CC1 [Example 163, N-(5-cyano-2-(4-(2-(difluoromethoxy)benzyl)piperazin-1-yl)pyridin-3-yl)-3-methoxy-1-methyl-1H-pyrazole-4-carboxamide]",6.7

# Second part, the compound after the results:
row,"pEC50, in vitro inhibition of cAMP",Structure (SMILES)
1,6.4,"COc1cc(N(C)C)ccc1C(=O)Nc1cc(C#N)ccc1N1CCC(Oc2ccc(F)cc2F)CC1 [Example 188, N-(5-cyano-2-(4-(2,4-difluorophenoxy)piperidin-1-yl)phenyl)-4-(dimethylamino)-2-methoxybenzamide]"
2,5.6,"COc1nccc(Cl)c1C(=O)Nc1cc(C#N)ccc1N1CCC(Oc2ccc(F)cc2F)CC1 [Example 223, 4-chloro-N-(5-cyano-2-(4-(2,4-difluorophenoxy)piperidin-1-yl)phenyl)-2-methoxynicotinamide]"
3,7.3,"COc1ncc(F)cc1C(=O)Nc1cc(C#N)ccc1N1CCC(Oc2ccc(F)cc2F)CC1 [Example 224, N-(5-cyano-2-(4-(2,4-difluorophenoxy)piperidin-1-yl)phenyl)-5-fluoro-2-methoxynicotinamide]"
4,5.6,"Cc1nnc(C(=O)Nc2cc(C#N)ccc2N2CCC(Oc3ccc(F)cc3F)CC2)o1 [Example 132, N-(5-cyano-2-(4-(2,4-difluorophenoxy)piperidin-1-yl)phenyl)-5-methyl-1,3,4-oxadiazole-2-carboxamide]"
5,7.1,COc1cccc(C(=O)Nc2cc(C#N)ccc2N2CCC(Oc3ccc(F)cc3F)CC2)c1OC [Example 230]
6,<4.5,"N#Cc1ccc(N2CCC(Oc3ccc(F)cc3F)CC2)c(NC(=O)c2cnon2)c1 [Example 139, N-(5-cyano-2-(4-(2,4-difluorophenoxy)piperidin-1-yl)phenyl)-1,2,5-oxadiazole-3-carboxamide]"
7,6.7,"COc1ccnc(C(=O)Nc2cc(C#N)ccc2N2CCC(Oc3ccc(F)cc3F)CC2)c1 [Example 109, N-(5-cyano-2-(4-(2,4-difluorophenoxy)piperidin-1-yl)phenyl)-4-methoxypicolinamide]"
8,6.5,"N#Cc1ccc(N2CCC(Oc3ccc(F)cc3F)CC2)c(NC(=O)c2cccn(C(F)F)c2=O)c1 [Example 277, N-(5-cyano-2-(4-(2,4-difluorophenoxy)piperidin-1-yl)phenyl)-1-(difluoromethyl)-2-oxo-1,2-dihydropyridine-3-carboxamide]"
9,6.9,COc1nccc(C(=O)Nc2cc(C#N)ccc2N2CCC(Oc3ccc(F)cc3F)CC2)n1 [Example 144]
10,7.2,"COc1cscc1C(=O)Nc1cc(C#N)ccc1N1CCC(Oc2ccc(F)cc2F)CC1 [Example 47, N-(5-cyano-2-(4-(2,4-difluorophenoxy)piperidin-1-yl)phenyl)-4-methoxythiophene-3-carboxamide]"
11,5.5,"COc1c(C)ccc(C)c1C(=O)Nc1cc(C#N)ccc1N1CCC(Oc2ccc(F)cc2F)CC1 [Example 214, N-(5-cyano-2-(4-(2,4-difluorophenoxy)piperidin-1-yl)phenyl)-2-methoxy-3,6-dimethylbenzamide]"
12,5.9,"COc1ncc(Cl)cc1C(=O)Nc1cc(C#N)ccc1N1CCC(Oc2ccc(F)cc2F)CC1 [Example 193, 5-chloro-N-(5-cyano-2-(4-(2,4-difluorophenoxy)piperidin-1-yl)phenyl)-2-methoxynicotinamide]"
13,6.4,"N#Cc1ccc(N2CCC(Oc3ccc(F)cc3F)CC2)c(NC(=O)c2cscn2)c1 [Example 112, N-(5-cyano-2-(4-(2,4-difluorophenoxy)piperidin-1-yl)phenyl)thiazole-4-carboxamide]"
14,7.0,"N#Cc1ccc(N2CCC(Oc3ccc(F)cc3F)CC2)c(NC(=O)c2ncccc2F)c1 [Example 108, N-(5-cyano-2-(4-(2,4-difluorophenoxy)piperidin-1-yl)phenyl)-3-fluoropicolinamide]"
15,7.3,"N#Cc1ccc(N2CCC(Oc3ccc(F)cc3F)CC2)c(NC(=O)c2cccnc2OC(F)F)c1 [Example 276, N-(5-cyano-2-(4-(2,4-difluorophenoxy)piperidin-1-yl)phenyl)-2-(difluoromethoxy)nicotinamide]"
16,<4.5,"COc1c(C(=O)Nc2cc(C#N)ccc2N2CCC(Oc3ccc(F)cc3F)CC2)nnn1Cc1ccccc1Cl [Example 221, 1-(2-chlorobenzyl)-N-(5-cyano-2-(4-(2,4-difluorophenoxy)piperidin-1-yl)phenyl)-5-methoxy-1H-1,2,3-triazole-4-carboxamide]"
17,7.4,"COc1cc(N2CCC(Oc3ccc(F)cc3F)CC2)c(NC(=O)c2cnccc2OC)cn1 [Example 21, N-(4-(4-(2,4-difluorophenoxy)piperidin-1-yl)-6-methoxypyridin-3-yl)-4-methoxynicotinamide]"
18,6.7,"N#Cc1ccc(N2CCC(Oc3ccc(F)cc3F)CC2)c(NC(=O)c2cc(C3CC3)on2)c1 [Example 125, N-(5-cyano-2-(4-(2,4-difluorophenoxy)piperidin-1-yl)phenyl)-5-cyclopropylisoxazole-3-carboxamide]"
19,6.4,"Cc1cc(C(=O)Nc2cc(C#N)ccc2N2CCC(Oc3ccc(F)cc3F)CC2)no1 [Example 41, N-(5-cyano-2-(4-(2,4-difluorophenoxy)piperidin-1-yl)phenyl)-5-methylisoxazole-3-carboxamide]"
20,6.4,"COc1cc(C(C)(C)C)ccc1C(=O)Nc1cc(C#N)ccc1N1CCC(Oc2ccc(F)cc2F)CC1 [Example 216, 4-(tert-butyl)-N-(5-cyano-2-(4-(2,4-difluorophenoxy)piperidin-1-yl)phenyl)-2-methoxybenzamide]"
21,6.8,"N#Cc1ccc(N2CCC(Oc3ccc(F)cc3F)CC2)c(NC(=O)c2cc3cccn3cn2)c1 [Example 48, N-(5-cyano-2-(4-(2,4-difluorophenoxy)piperidin-1-yl)phenyl)pyrrolo[1,2-c]pyrimidine-3-carboxamide]"
